Measurements from PubChem BioAssay (NCI).
Several values for one entry are separate records, joined by “and”; a condition that tells them apart may be missing. Equal values may be shown once.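 Cells were grown in 96-well plates and exposed to each compound for 48 hours at five concentrations; endpoints were interpolated linearly between bracketing concentrations, or set to the highest concentration if not reached. The concentration for 50% growth inhibition is given as GI50. TGI marks complete inhibition of growth.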

What was measured:
Test in all cases: NCI anticancer screen, dose series, 48 h
UACC-62 melanoma = tested on: UACC-62 melanoma
COLO 205 colon = tested on: COLO 205 colon
ACHN renal = tested on: ACHN renal
SF-268 CNS = tested on: SF-268 CNS
RPMI-8226 leukemia = tested on: RPMI-8226 leukemia
IGROV1 ovarian = tested on: IGROV1 ovarian
NCI-H226 lung = tested on: NCI-H226 lung
HOP-62 NSCLC = tested on: HOP-62 NSCLC
HCT-116 colon = tested on: HCT-116 colon
MDA-MB-231 breast = tested on: MDA-MB-231 breast

Row | SMILES | TGI (UACC-62 melanoma) | TGI (COLO 205 colon) [µM] | TGI (ACHN renal) | TGI (SF-268 CNS) | TGI (RPMI-8226 leukemia) | TGI (IGROV1 ovarian) | TGI (NCI-H226 lung) [µM] | TGI (HOP-62 NSCLC) | TGI (HCT-116 colon) | TGI (MDA-MB-231 breast) [µM] | GI50 (UACC-62 melanoma) [µM] | GI50 (NCI-H226 lung) [µM] | GI50 (ACHN renal) [µM] | GI50 (SF-268 CNS) [µM] | GI50 (IGROV1 ovarian) [µM] | GI50 (MDA-MB-231 breast) [µM] | GI50 (HOP-62 NSCLC) [µM] | GI50 (HCT-116 colon) [µM] | GI50 (COLO 205 colon) [µM] | GI50 (RPMI-8226 leukemia) [µM]
1 | COS(=O)c1cc(Cl)cc(Cl)c1OC(=O)CSSCC(=O)Oc1c(Cl)cc(Cl)cc1S(=O)OC (configuration not stated) | 21.4 µM | 44.8 | 64.2 µM | 44.9 µM | 38.3 µM | 46.5 µM |  |  |  |  |  |  |  |  |  |  |  |  |  | 
2 | CCOC(=O)C1=C(C)N(NC(N)=O)C2(N)N(NC(N)=O)C(C)=C(C(=O)OCC)C12C#N (configuration not stated) | > 100 µM |  | > 100 µM | > 100 µM | > 100 µM | > 100 µM | > 100 | > 100 µM | > 100 µM |  |  |  |  |  |  |  |  |  |  | 
3 | Cc1cc(OC2OC(CO)C(O)C(O)C2O)ccc1O (configuration not stated) | > 100 µM | > 100 | > 100 µM | > 100 µM | > 100 µM | > 100 µM |  | > 100 µM | > 100 µM | > 100 |  |  |  |  |  |  |  |  |  | 
4 | COc1ccc(/C=C/C(=O)c2c(-c3ccccc3)nn(C)c(=O)c2N2CCCCC2)cc1 | 44.8 µM | 44 | > 100 µM | 66.1 µM | 31.8 µM | 77.9 µM |  |  | 23.6 µM |  |  |  |  |  |  |  |  |  |  | 
5 | OC1=CN=C(c2ccccc2)Oc2ccccc21 | > 100 µM | > 100 | > 100 µM | > 100 µM | > 100 µM | > 100 µM | 97.5 | > 100 µM | > 100 µM |  |  |  |  |  |  |  |  |  |  | 
6 | C1CN2CCO[SiH](O1)OCC2 | > 100 µM | > 100 | > 100 µM | > 100 µM | > 100 µM | > 100 µM | > 100 |  | > 100 µM |  |  |  |  |  |  |  |  |  |  | 
7 | CNC(=O)OCc1nc(SSc2nc(COC(=O)NC)c(COC(=O)NC)n2C)n(C)c1COC(=O)NC | > 100 µM | > 100 | > 100 µM | > 100 µM | > 100 µM | > 100 µM | > 100 | > 100 µM | > 100 µM |  |  |  |  |  |  |  |  |  |  | 
8 | CCCCCCCCCCCCCCCC(=O)OCC1OC(n2cc(F)c(=O)[nH]c2=O)C(NC(=O)OCc2ccccc2)C(O)C1O (configuration not stated) | 35.3 µM | 34 | > 100 µM | 54 µM | 39.3 µM | 46.6 µM |  |  | 30.4 µM |  |  |  |  |  |  |  |  |  |  | 
9 | CCOC(=O)c1cc(C(=O)c2ccc(OC)c(OC)c2)n2c1ccc1ccc3cccnc3c12 | > 100 µM |  | > 100 µM | > 100 µM |  | > 100 µM | > 100 | 81.6 µM | > 100 µM | > 100 | 0.918 | 6.86 | 2.4 | 4.62 | 2.33 | 2.66 | 3.78 | 0.619 |  | 
10 | CCc1c(OC(C)=O)c2c(NC3OC(COC(C)=O)C(OC(C)=O)C(OC(C)=O)C3OC(C)=O)nc(SC)nc2oc1=O (configuration not stated) | > 100 µM | > 100 | > 100 µM |  | > 100 µM | > 100 µM | > 100 | > 100 µM | > 100 µM |  |  |  |  |  |  |  |  |  |  | 
11 | COc1cc2c(c3c1c(=O)c1ccccc1n3C)C=C([N+](=O)[O-])C(C)(C)O2 | > 100 µM |  | 0.464 µM | > 100 µM | > 31.6 µM | > 100 µM | > 100 | > 100 µM | > 100 µM | > 31.6 |  |  |  |  |  |  |  |  |  | 
12 | [O-][n+]1c2cccc(O)c2[n+]([O-])c2cccc(O)c21 |  | > 100 | 51.8 µM | > 100 µM | 83.3 µM | 69 µM |  | > 100 µM | > 100 µM |  |  |  |  |  |  |  |  |  |  | 
13 | C[n+]1cn(CC(=O)c2ccccc2)c(C(N)=O)c1N | > 100 µM | > 100 | > 100 µM | > 100 µM | > 100 µM | > 100 µM | > 100 | > 100 µM | 74.1 µM |  |  |  |  |  |  |  |  |  |  | 
14 | O=C1c2cccc3c(N4CCOCC4)ccc(c23)C(=O)N1CCN1CCN(CCCCCN2CCN(CCN3C(=O)c4cccc5c(N6CCOCC6)ccc(c45)C3=O)CC2)CC1 | > 100 µM | > 100 | > 100 µM | > 100 µM | > 100 µM |  | > 100 | > 100 µM | > 100 µM | > 100 | 77.6 | 87.3 | 62.2 | > 100 |  | > 100 | 52.3 | 33.8 | 46.1 | 23.2
15 | CCN(CC)CCCC(Nc1c2ccc(Cl)cc2nc2ccc(OC)cc12)c1ccc(Cl)cc1 (configuration not stated) |  | 2.87 | 2.81 µM | 3.05 µM | 1.8 µM |  |  | 3.14 µM |  | 2.24 |  |  | 1.38 | 1.43 |  | 0.67 | 1.61 |  | 1.31 | 0.449
16 | N#CC(C(=O)Nc1ccccc1)C1=C(Cl)C(=O)c2ccccc2C1=O (configuration not stated) | 33.3 µM | 37.3 |  | 31 µM |  | 34.8 µM | 30.8 | 33.6 µM | 27.3 µM |  |  |  |  |  |  |  |  |  |  | 
17 | CCOC(=O)C[C@@]12CCCN[C@]1(C)CCc1ccccc12 | > 100 µM |  | > 100 µM | > 100 µM | > 100 µM | > 100 µM |  | > 100 µM | > 100 µM |  |  |  |  |  |  |  |  |  |  | 
18 | CCCCCCCCCCCCCC(=O)O[C@H]1CC[C@H](NC(=O)[C@H](OC)[C@H](O)[C@@H](O)[C@H](O)/C=C/C(C)C)C(=O)N(C)C1 | 0.0655 µM and 0.00779 µM |  | 15 µM and > 23.8 µM | 15 µM and 2.38 µM | 15 µM and 8.02 µM | 15 µM and > 23.8 µM |  | 15 µM and > 23.8 µM | 15 µM and 2.46 µM |  | 0.00238 | 0.544 | 0.0306 | 0.0235 | 0.00377 |  | > 23.8 |  |  | 0.00392
19 | Cc1ccccc1Nc1cc(O)c2c(=O)cc(-c3ccccc3)oc2c1 | > 100 µM |  | > 100 µM | > 100 µM | > 100 µM | > 100 µM | > 100 | > 100 µM | > 100 µM | > 100 | 2.89 | 4.11 | 4.25 | 4.49 | 3.2 | 3.58 | 3.23 | 3.36 |  | 2.87
20 | Cc1ccc(-n2c3nc(=O)n(C)c(=O)c-3nc3ccccc32)c(C)c1 | 5.49 µM | 13 | 15.8 µM | 34.8 µM | 42.4 µM | 36.4 µM | 30.7 | > 100 µM | 24 µM |  |  |  |  |  |  |  |  |  |  | 
